Test results taken from US12257237B2 (priority 2017, dated 2025).
“And” between values parts separate entries of the source, which are not always exact repeats. Equal entries are not always repeated.

Test: Drug tolerability (body weight) in TC-71 Ewing sarcoma xenograft model
Format: in vivo, Athymic nude mice
Settings: for BWL %: negative = loss vs day 9
Procedure: Experiments were performed with female Athymic nude mice, 9-10 weeks old obtained from Harlan Laboratories (Udine, Italy). They were maintained under Specific Pathogen Free conditions with constant temperature and humidity, according to the institutional guidelines.
Tumour growth mice was monitored two/three times a week (depending on tumour growth rate, to avoid unnecessary stress to the animals) by Vernier caliper. Mice were sacrificed when tumour reached a mean weight of 2±0.5 gr. The antitumour activity will be expressed as T/C %, where T and C were the mean tumour weight of treated and control groups, respectively. Mice were monitored daily and weighted at least two times a week. Tolerability was evaluated on the basis of body weight loss (BWL) and clinical observation.

[1] = EDO40: EDO-S101 40 mg/kg, day 9 from tumour inoculum (treatment start)
[2] = EDO40: EDO-S101 40 mg/kg, day 10 from tumour inoculum
[3] = EDO40: EDO-S101 40 mg/kg, day 11 from tumour inoculum
[4] = EDO40: EDO-S101 40 mg/kg, day 14 from tumour inoculum
[5] = EDO40: EDO-S101 40 mg/kg, day 16 from tumour inoculum
[6] = EDO40: EDO-S101 40 mg/kg, day 18 from tumour inoculum
[7] = EDO40: EDO-S101 40 mg/kg, day 21 from tumour inoculum
[8] = EDO40: EDO-S101 40 mg/kg, day 23 from tumour inoculum
[9] = EDO40: EDO-S101 40 mg/kg, day 25 from tumour inoculum
[10] = EDO40: EDO-S101 40 mg/kg, day 28 from tumour inoculum
[11] = EDO40: EDO-S101 40 mg/kg, day 30 from tumour inoculum
[12] = EDO40: EDO-S101 40 mg/kg, day 32 from tumour inoculum
[13] = EDO60: EDO-S101 60 mg/kg, day 9 from tumour inoculum (treatment start)
[14] = EDO60: EDO-S101 60 mg/kg, day 10 from tumour inoculum
[15] = EDO60: EDO-S101 60 mg/kg, day 11 from tumour inoculum
[16] = EDO60: EDO-S101 60 mg/kg, day 14 from tumour inoculum
[17] = EDO60: EDO-S101 60 mg/kg, day 16 from tumour inoculum
[18] = EDO60: EDO-S101 60 mg/kg, day 18 from tumour inoculum
[19] = EDO60: EDO-S101 60 mg/kg, day 21 from tumour inoculum
[20] = EDO60: EDO-S101 60 mg/kg, day 23 from tumour inoculum
[21] = EDO60: EDO-S101 60 mg/kg, day 25 from tumour inoculum
[22] = EDO60: EDO-S101 60 mg/kg, day 28 from tumour inoculum
[23] = EDO60: EDO-S101 60 mg/kg, day 30 from tumour inoculum
[24] = EDO60: EDO-S101 60 mg/kg, day 32 from tumour inoculum
[25] = EDO60: EDO-S101 60 mg/kg, day 35 from tumour inoculum
[26] = EDO60: EDO-S101 60 mg/kg, day 38 from tumour inoculum
[27] = EDO60: EDO-S101 60 mg/kg, day 42 from tumour inoculum
[28] = EDO60: EDO-S101 60 mg/kg, day 46 from tumour inoculum
[29] = EDO60: EDO-S101 60 mg/kg, day 49 from tumour inoculum
[30] = EDO60: EDO-S101 60 mg/kg, day 53 from tumour inoculum
[31] = EDO60: EDO-S101 60 mg/kg, day 56 from tumour inoculum
[32] = EDO80: EDO-S101 80 mg/kg, day 9 from tumour inoculum (treatment start)
[33] = EDO80: EDO-S101 80 mg/kg, day 10 from tumour inoculum
[34] = EDO80: EDO-S101 80 mg/kg, day 11 from tumour inoculum
[35] = EDO80: EDO-S101 80 mg/kg, day 14 from tumour inoculum
[36] = EDO80: EDO-S101 80 mg/kg, day 16 from tumour inoculum
[37] = EDO80: EDO-S101 80 mg/kg, day 18 from tumour inoculum
[38] = EDO80: EDO-S101 80 mg/kg, day 21 from tumour inoculum
[39] = EDO80: EDO-S101 80 mg/kg, day 23 from tumour inoculum
[40] = EDO80: EDO-S101 80 mg/kg, day 25 from tumour inoculum
[41] = EDO80: EDO-S101 80 mg/kg, day 28 from tumour inoculum
[42] = EDO80: EDO-S101 80 mg/kg, day 30 from tumour inoculum
[43] = EDO80: EDO-S101 80 mg/kg, day 32 from tumour inoculum
[44] = EDO80: EDO-S101 80 mg/kg, day 35 from tumour inoculum
[45] = EDO80: EDO-S101 80 mg/kg, day 38 from tumour inoculum
[46] = EDO80: EDO-S101 80 mg/kg, day 42 from tumour inoculum
[47] = EDO80: EDO-S101 80 mg/kg, day 46 from tumour inoculum
[48] = EDO80: EDO-S101 80 mg/kg, day 49 from tumour inoculum

Cn1c(CCCCCCC(=O)NO)nc2cc(N(CCCl)CCCl)ccc21 [EDO-S101, 7-(5-(bis(2-chloroethyl)amino)-1-methyl-1H-benzo[d]imidazol-2-yl)-N-hydroxyheptanamide]
mice found dead (40 mg/kg group, unknown reasons, probably not ascribable to the drug): One | maximum BWL (40 mg/kg, day 10, 24 h after the first dose): 5.4% | maximum BWL (60 mg/kg, day 25, 48 h after the third dose): 11.7% | maximum body weight loss (80 mg/kg, day 14, 5 days after administration): 19.3% | time to recovery from body weight loss (80 mg/kg, recovered by day 24): ≤ 10 days | Mouse body weight, group Mean [1]: 27.0 g | BWL % [1]: 0.0% | Mouse body weight, group Mean [2]: 25.6 g | BWL % [2]: −5.4% | Mouse body weight, group Mean [3]: 25.9 g | BWL % [3]: −4.0% | Mouse body weight, group Mean [4]: 26.6 g | BWL % [4]: −1.6% | Mouse body weight, group Mean [5]: 27.2 g | BWL % [5]: 0.7% | Mouse body weight, group Mean [6]: 26.1 g | BWL % [6]: −3.4% | Mouse body weight, group Mean [7]: 26.2 g | BWL % [7]: −3.0% | Mouse body weight, group Mean [8]: 27.1 g | BWL % [8]: 0.3% | Mouse body weight, group Mean [9]: 26.3 g | BWL % [9]: −2.9% | Mouse body weight, group Mean [10]: 27.7 g | BWL % [10]: 2.3% | Mouse body weight, group Mean [11]: 28.5 g | BWL % [11]: 5.3% | Mouse body weight, group Mean [12]: 28.7 g | BWL % [12]: 6.0% | Mouse body weight, group Mean [13]: 27.6 g | BWL % [13]: 0.0% | Mouse body weight, group Mean [14]: 25.6 g | BWL % [14]: −7.0% | Mouse body weight, group Mean [15]: 25.2 g | BWL % [15]: −8.6% | Mouse body weight, group Mean [16]: 25.4 g | BWL % [16]: −8.1% | Mouse body weight, group Mean [17]: 26.2 g | BWL % [17]: −5.1% | Mouse body weight, group Mean [18]: 25.2 g | BWL % [18]: −8.8% | Mouse body weight, group Mean [19]: 24.9 g | BWL % [19]: −9.8% | Mouse body weight, group Mean [20]: 25.0 g | BWL % [20]: −9.2% | Mouse body weight, group Mean [21]: 24.4 g | BWL % [21]: −11.7% | Mouse body weight, group Mean [22]: 25.3 g | BWL % [22]: −8.3% | Mouse body weight, group Mean [23]: 25.6 g | BWL % [23]: −7.3% | Mouse body weight, group Mean [24]: 26.4 g | BWL % [24]: −4.2% | Mouse body weight, group Mean [25]: 25.4 g | BWL % [25]: −8.0% | Mouse body weight, group Mean [26]: 25.8 g | BWL % [26]: −6.6% | Mouse body weight, group Mean [27]: 25.8 g | BWL % [27]: −6.5% | Mouse body weight, group Mean [28]: 25.1 g | BWL % [28]: −8.9% | Mouse body weight, group Mean [29]: 25.4 g | BWL % [29]: −8.1% | Mouse body weight, group Mean [30]: 26.7 g | BWL % [30]: −3.1% | Mouse body weight, group Mean [31]: 28.1 g | BWL % [31]: 2.0% | Mouse body weight, group Mean [32]: 27.9 g | Mouse body weight, individual mice (EDO80: EDO-S101 80 mg/kg, day 9 from tumour inoculum (treatment start), 80 mg/kg): 28.4 g and 25.3 g and 26.1 g and 26.6 g and 28.5 g and 27.5 g and 32 g and 28.7 g | BWL % [32]: 0.0% | Mouse body weight, group Mean [33]: 25.3 g | Mouse body weight, individual mice (EDO80: EDO-S101 80 mg/kg, day 10 from tumour inoculum, 80 mg/kg): 25.1 g and 22.8 g and 24 g and 24.8 g and 26.8 g and 24.4 g and 28.6 g and 25.5 g | BWL % [33]: −9.5% | Mouse body weight, group Mean [34]: 24.8 g | Mouse body weight, individual mice (EDO80: EDO-S101 80 mg/kg, day 11 from tumour inoculum, 80 mg/kg): 24.9 g and 22.6 g and 23.5 g and 24.7 g and 26 g and 24.4 g and 27.9 g and 24.3 g | BWL % [34]: −11.1% | Mouse body weight, group Mean [35]: 22.5 g | Mouse body weight, individual mice (EDO80: EDO-S101 80 mg/kg, day 14 from tumour inoculum, 80 mg/kg): 21.8 g and 19.4 g and 22.4 g and 23.5 g and 23.2 g (2×) and 23.8 g and 22.7 g | BWL % [35]: −19.3% | Mouse body weight, group Mean [36]: 23.9 g | Mouse body weight, individual mice (EDO80: EDO-S101 80 mg/kg, day 16 from tumour inoculum, 80 mg/kg): 23.3 g and 19.7 g and 24.2 g and 25.1 g and 24.8 g and 24.4 g and 26.9 g and 22.9 g | BWL % [36]: −14.3% | Mouse body weight, group Mean [37]: 25.2 g | Mouse body weight, individual mice (EDO80: EDO-S101 80 mg/kg, day 18 from tumour inoculum, 80 mg/kg): 24.1 g and 22.2 g and 24.8 g and 26 g and 27 g and 26.1 g and 28 g | BWL % [37]: −9.6% | Mouse body weight, group Mean [38]: 26.2 g | Mouse body weight, individual mice (EDO80: EDO-S101 80 mg/kg, day 21 from tumour inoculum, 80 mg/kg): 25.7 g and 22.6 g and 26.5 g and 26.2 g and 27.4 g and 26.3 g and 29.6 g and 25.2 g | BWL % [38]: −6.1% | Mouse body weight, group Mean [39]: 26.6 g | Mouse body weight, individual mice (EDO80: EDO-S101 80 mg/kg, day 23 from tumour inoculum, 80 mg/kg): 26.1 g and 23.8 g and 26.6 g (3×) and 27.9 g and 30.1 g and 25.2 g | BWL % [39]: −4.6% | Mouse body weight, group Mean [40]: 27.8 g | Mouse body weight, individual mice (EDO80: EDO-S101 80 mg/kg, day 25 from tumour inoculum, 80 mg/kg): 27 g and 25.1 g and 27.9 g and 27.7 g and 28.8 g | BWL % [40]: −0.4% | Mouse body weight, group Mean [41]: 28.9 g | Mouse body weight, individual mice (EDO80: EDO-S101 80 mg/kg, day 28 from tumour inoculum, 80 mg/kg): 27.9 g and 25.4 g and 28.7 g and 28.1 g | BWL % [41]: 3.6% | Mouse body weight, group Mean [42]: 28.5 g | Mouse body weight, individual mice (EDO80: EDO-S101 80 mg/kg, day 30 from tumour inoculum, 80 mg/kg): 28.2 g and 25.3 g and 27.3 g and 27.9 g | BWL % [42]: 2.1% | Mouse body weight, group Mean [43]: 28.0 g | Mouse body weight, individual mice (EDO80: EDO-S101 80 mg/kg, day 32 from tumour inoculum, 80 mg/kg): 27.4 g (2×) and 24.9 g and 26.6 g | BWL % [43]: 0.4% | Mouse body weight, group Mean [44]: 25.1 g | Mouse body weight, individual mice (EDO80: EDO-S101 80 mg/kg, day 35 from tumour inoculum, 80 mg/kg): 24.4 g and 21.9 g and 24.8 g and 26.1 g | BWL % [44]: −9.9% | Mouse body weight, group Mean [45]: 25.0 g | Mouse body weight, individual mice (EDO80: EDO-S101 80 mg/kg, day 38 from tumour inoculum, 80 mg/kg): 24.4 g and 21.8 g and 25.1 g and 25.3 g | BWL % [45]: −10.4% | Mouse body weight, group Mean [46]: 27.1 g | Mouse body weight, individual mice (EDO80: EDO-S101 80 mg/kg, day 42 from tumour inoculum, 80 mg/kg): 26.3 g and 23.1 g and 27 g and 28 g | BWL % [46]: −2.9% | Mouse body weight, group Mean [47]: 28.8 g | Mouse body weight, individual mice (EDO80: EDO-S101 80 mg/kg, day 46 from tumour inoculum, 80 mg/kg): 28.6 g and 25.3 g and 28.3 g and 30 g | BWL % [47]: 3.1% | Mouse body weight, group Mean [48]: 30.2 g | Mouse body weight, individual mice (EDO80: EDO-S101 80 mg/kg, day 49 from tumour inoculum, 80 mg/kg): 29.8 g and 26 g and 30 g and 32.3 g | BWL % [48]: 8.2% | BWL during second cycle (all dose regimens): < 9%
